# According to patent US5750724A, “Indolealkyl derivatives of benzodioxanmethylamine” (American Home Products Corporation, priority 1996, dated 1998):
# Tests used:
# [1] = tested on: 3H 5-hydroxytryptamine uptake; experiment: inhibition of 3H 5-hydroxytryptamine uptake, crude synaptosomes from rat frontal cortex (modified Wood and Willie); assay type: biochemical; settings: nonspecific uptake in presence of 10 μM fluoxetine, read-out: Inhibition 5-HT Uptake IC50
# Experimental: Inhibition of ^3 H 5-hydroxytryptamine uptake was established using a modification of the procedure of Wood and Willie, J. Neurochem. 37:795, 1981. Crude synaptosomes prepared from rat frontal cortex were utilized and nonspecific uptake was defined as that occurring in the presence of excess (10 μM) fluoxetine.
# [2] = cited from earlier work
# [3] = molecular target: T1, 5-HT1A serotonin receptor (Rattus norvegicus, UniProt P19327); settings: reference agents; cited from earlier work
# T1 construct: following the procedure of Hall et al., J. Neurochem; 44, 1685 (1985); from tissue
# T1 sequence (P19327 1-422): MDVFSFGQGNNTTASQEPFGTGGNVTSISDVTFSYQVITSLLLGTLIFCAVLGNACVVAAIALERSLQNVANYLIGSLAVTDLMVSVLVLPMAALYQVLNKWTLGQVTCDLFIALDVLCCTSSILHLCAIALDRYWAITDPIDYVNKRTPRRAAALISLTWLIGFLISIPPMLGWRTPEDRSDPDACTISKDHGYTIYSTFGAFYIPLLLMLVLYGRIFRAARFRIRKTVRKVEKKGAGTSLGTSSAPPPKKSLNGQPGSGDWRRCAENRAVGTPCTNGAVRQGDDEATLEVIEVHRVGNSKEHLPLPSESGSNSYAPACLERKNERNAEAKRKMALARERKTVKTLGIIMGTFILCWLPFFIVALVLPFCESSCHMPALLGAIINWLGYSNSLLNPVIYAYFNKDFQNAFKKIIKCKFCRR
# [4] = molecular target: T1, 5-HT1A serotonin receptor; experiment: displacement of [3H] 8-OHDPAT (dipropylaminotetralin) from the 5-HT1A serotonin receptor (Hall et al.); assay type: binding; settings: read-out: 5-HT1A Receptor Affinity IC50
# Source text: High affinity for the serotonin 5-HT1A receptor was established by testing the claimed compound's ability to displace [^3 H] 8-OHDPAT (dipropylaminotetralin) from the ^5 -HT1A serotonin receptor following the procedure of Hall et al., J. Neurochem. 44, 1685 (1985). […] The anxiolytic and antidepressant activity of these agents are believed to be, at least partially, due to their 5-HT1A receptor affinity (Vander Maclen et al., Eur. J. Pharmacol. 1986, 129 (1-2) […] and Lucki, J. Clin. Psychiat. 1992, 52, 24-31).
# dopamine D2 receptor = molecular target: T2, dopamine D2 receptor (Rattus norvegicus, UniProt P61169); experiment: dopamine D2 receptor affinity, 3H-quinpirole, homogenized rat striatal brain tissue (modified Seemen and Schaus); assay type: binding
# T2 construct: homogenized rat striatal brain tissue; from tissue; host or cells: rat striatum homogenate
# T2 sequence (P61169 whole entry): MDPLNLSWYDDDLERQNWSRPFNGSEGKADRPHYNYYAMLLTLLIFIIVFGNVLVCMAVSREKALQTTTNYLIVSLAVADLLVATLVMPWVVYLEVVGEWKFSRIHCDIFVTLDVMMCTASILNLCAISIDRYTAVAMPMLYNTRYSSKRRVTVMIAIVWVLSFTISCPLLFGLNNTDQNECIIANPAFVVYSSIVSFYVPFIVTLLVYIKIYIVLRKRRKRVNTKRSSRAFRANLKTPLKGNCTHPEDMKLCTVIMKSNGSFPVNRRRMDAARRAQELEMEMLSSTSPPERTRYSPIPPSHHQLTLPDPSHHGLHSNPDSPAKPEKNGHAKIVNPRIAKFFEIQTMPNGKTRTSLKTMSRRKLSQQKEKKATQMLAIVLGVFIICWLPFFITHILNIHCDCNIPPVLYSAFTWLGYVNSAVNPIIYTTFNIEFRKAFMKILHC
# Experimental: Affinity for the dopamine D2 receptor was established by a modification of the standard experimental test procedure of Seemen and Schaus, European Journal of Pharmacology 203: 105-109, 1991, wherein homogenized rat striatal brain tissue is incubated with ^3 H-quinpirole and various concentrations of test compound, filtered and washed and counted in a Betaplate scintillation counter.
# 5-HT1A receptors = settings: European Journal of Pharmacology, 173 (1989), 189; cited from earlier work
Compound,IC50 [4] [nM],IC50 (dopamine D2 receptor) [nM],other results
"CN(C)CCCN1c2ccccc2CCc2ccccc21 [imipramine, reference compound]",–,–,IC50 [1]: 120 nM
O=C1c2ccccc2S(=O)(=O)N1CCCCN1CCN(c2ncccn2)CC1 [ipsapirone],–,–,anxiolytic and antidepressant activity in clinical trials (in words) [2]: demonstrated both anxiolytic and antidepressant activity in clinical trials; affinity for the 5-HT1A serotonin receptor subtype (in words) [3]: potent affinity
"COc1ccc2c(c1)O[C@@H](CNCCCCc1c[nH]c3ccccc13)CO2 [Example 2, [4-(1H-Indol-3-yl)-butyl]-(7-methoxy-2,3-dihydro-benzo[1,4]dioxin-2-ylmethyl)amine]",5.7,82,–
"CNCCC(Oc1ccc(C(F)(F)F)cc1)c1ccccc1 (centres unmarked) [fluoxetine, reference compound]",–,–,IC50 [1]: 71 nM
"c1ccc2c(CCCCNC[C@H]3COc4cc5c(cc4O3)OCO5)c[nH]c2c1 [Example 1, [(6,7-Dihydro-1,3-dioxolo[4,5-g][1,4]benzodioxin-6-yl)methyl]-[4-(1H-indol-3-yl)-butyl]-amine]",5.6,116,–
"CS(=O)(=O)Nc1ccc2c(c1)O[C@@H](CNCCCc1c[nH]c3ccccc13)CO2 [Example 21, N-(3-{[3-(1H-Indol-3-yl)-propylamino]methyl}-2,3-dihydro-benzo[1,4]dioxin-6-yl)-methanesulfonamide]",5.8,0.76,–
"CN(C)C/C=C(/c1ccc(Br)cc1)c1cccnc1 [zimelidine, reference compound]",–,–,IC50 [1]: 240 nM
"COc1ccc2[nH]cc(CCCCNCC3COc4ccc(O)cc4O3)c2c1 (centres unmarked) [Example 10, 3-{[4-(5-Methoxy-1H-indol-3-yl)-butylamino]methyl}-2,3-dihydrobenzo[1,4]dioxin-6-ol]",1.94,0.39,–
"Oc1ccc2c(c1)OC(CNCCCc1c[nH]c3ccc(O)cc13)CO2 (centres unmarked) [Example 8, 3-{3-[(7-Hydroxy-2,3-dihydro-benzo[1,4]dioxin-2-ylmethyl)-amino]-propyl}-1H-indol-5-ol]",0.35,0.61,–
CC1(C)CC(=O)N(CCCCN2CCN(c3ncccn3)CC2)C(=O)C1 [gepirone],–,–,anxiolytic and antidepressant activity in clinical trials (in words) [2]: demonstrated both anxiolytic and antidepressant activity in clinical trials; affinity for the 5-HT1A serotonin receptor subtype (in words) [3]: potent affinity
"Cn1cc(CCCNCC2COc3ccc(NS(C)(=O)=O)cc3O2)c2ccccc21 (centres unmarked) [Example 24, N-(3-{[3-(1-Methyl-1H-indol-3-yl)-propylamino]-methyl}-2,3-dihydrobenzo[1,4]dioxin-6-yl)-methanesulfonamide]",9.29,20.4,–
"c1ccc(COc2ccc3[nH]cc(CCCNCC4COc5ccccc5O4)c3c2)cc1 (centres unmarked) [Example 4, [3-(5-Benzyloxy-1H-indol-3-yl)-propyl]-(2,3-dihydro-benzo[1,4]dioxin-2-ylmethyl)-amine]",8.05,102,–
"Oc1ccc2c(c1)OC(CNCCCCc1c[nH]c3ccccc13)CO2 (centres unmarked) [Example 3, 3-{[4-(1H-Indol-3-yl)-butylamino}-methyl}-2,3-dihydro-benzo[1,4]dioxin-6-ol]",6,1.3,–
"COc1ccc2[nH]cc(CCCCNCC3COc4ccccc4O3)c2c1 (centres unmarked) [Example 23, (2,3-Dihydro-benzo[1,4]dioxin-2-ylmethyl)-[4-(5-methoxy-1H-indol-3-yl)-butyl]-amine]",0.56,6.63,–
"Fc1ccc2[nH]cc(CCCNCC3COc4ccccc4O3)c2c1 (centres unmarked) [Example 13, (2,3-Dihydro-benzo[1,4]dioxin-2-ylmethyl)-[3-(5-fluoro-1H-indol-3-yl)-propyl]-amine]",0.12,8.13,IC50 [1]: 154 nM
"Oc1ccc2[nH]cc(CCCNCC3COc4ccccc4O3)c2c1 (centres unmarked) [Example 5, 3-{3-[(2,3-Dihydro-benzo[1,4]dioxin-2-ylmethyl)-amino]-propyl}-1H-indol-5-o]",0.06,6.5,IC50 [1]: 52 nM

Compound,IC50 [4] [nM],IC50 (dopamine D2 receptor) [nM],other results
O=C1CC2(CCCC2)CC(=O)N1CCCCN1CCN(c2ncccn2)CC1 [buspirone],–,–,affinity for the 5-HT1A serotonin receptor subtype (in words) [3]: potent affinity
"CS(=O)(=O)Nc1ccc2c(c1)OC(CNCCCCc1c[nH]c3ccccc13)CO2 (centres unmarked) [Example 11, N-(3-{[4-(1 H-Indol-3-yl)-butylamino]-methyl}-2,3-dihydro-benzo[1,4]dioxin-6-yl)-methanesulfonamide]",3.89,2.37,IC50 [1]: 13.5 nM
"COc1ccc2[nH]cc(CCCNCC3COc4ccccc4O3)c2c1 (centres unmarked) [Example 12, (2.3-Dihydro-benzo[1,4]dioxin-2-ylmethyl)-[3-(5-methoxy-1H-indol-3-yl)-propyl]-amine]",0.1,1.55,IC50 [1]: 2380 nM
"COc1ccc2[nH]cc(CCCCNCC3COc4ccc(NS(C)(=O)=O)cc4O3)c2c1 (centres unmarked) [Example 14, N-(3-{[4-(5-Methoxy-1 H-indol-3-yl)-butylamino]-methyl}-2,3-dihydrobenzo[1,4]dioxin-6-yl)-methanesulfonamide]",0.81,4.75,–
"Oc1ccc2c(c1)O[C@@H](CNCCCc1c[nH]c3ccccc13)CO2 [Example 20, 3-{[3-(1H-Indol-3-yl)-propylamino]methyl}-2,3-dihydro-benzo[1,4]dioxin-6-ol]",5.9,0.13,–
COc1ccc2[nH]cc(CCNCC3COc4ccccc4O3)c2c1 (centres unmarked),–,–,partial agonist activity at 5-HT1A receptors (in words) (5-HT1A receptors): partial agonist activity at 5-HT1A receptors
"c1ccc2c(c1)OCC(CNCCCc1c[nH]c3ccccc13)O2 (centres unmarked) [Example 17, (2.3-Dihydro-benzo[1,4]dioxin-2-ylmethyl)-[3-(1H-indol-3-yl)-propyl]-amine]",3.77,3.5,–
"Fc1ccc2[nH]cc(CCCCNCC3COc4ccccc4O3)c2c1 (centres unmarked) [Example 18, (2,3-Dihydro-benzo[1,4]dioxin-2-ylmethyl)-[4-(5-fluoro-1H-indol-3-yl)-butyl]-amine]",3.95,18.4,–
"COc1ccc2c(c1)OC(CNCCCCc1c[nH]c3ccc(OC)cc13)CO2 (centres unmarked) [Example 9, (7-Methoxy-2,3-dihydro-benzo[1,4]dioxin-2-ylmethyl)-[4-(5-methoxy-1 H-indol-3-yl)-butyl]-amine]",0.8,64,IC50 [1]: 738 nM
"Oc1ccc2c(c1)OC(CNCCCc1c[nH]c3ccccc13)CO2 (centres unmarked) [Example 15, 3-{[4-(1H-Indol-3-yl)-propylamino]-methyl}-2,3-dihydro-benzo[1,4]dioxin-6-ol]",4.85,0.3,–
"COc1ccc2c(c1)OC(CNCCCCc1c[nH]c3ccc(F)cc13)CO2 (centres unmarked) [Example 19, [4-(5-Fluoro-1H-indole-3-yl)-butyl]-(7-methoxy-2,3-dihydro-benzo[1,4]dioxin-2-ylmethyl)-amine]",5.5,72,–
"c1ccc2c(c1)OCC(CNCCCCc1c[nH]c3ccccc13)O2 (centres unmarked) [Example 16, (2,3-Dihydro-benzo[1,4]dioxin-2-ylmethyl)-[4-(1H-indol-3-yl)-butyl]-amine]",4.86,13.6,–
"Cn1cc(CCCCNCC2COc3ccccc3O2)c2cc(F)ccc21 (centres unmarked) [Example 22, (2,3-Dihydro-benzo[1,4]dioxin-2-ylmethyl)-{4-[5-fluoro-1-methyl-1H-(indole-3-yl)]-butyl}-amine]",16,49.8,–
"COc1ccc2c(c1)OC(CNCCCc1c[nH]c3ccc(O)cc13)CO2 (centres unmarked) [Example 6, 3-{3-[(7-Methoxy-2,3-dihydro-benzo[1,4]dioxin-2-ylmethyl)-amino]-propyl}-1H-indol-5-ol]",2.7,45,–
"COc1ccc2c(c1)OC(CN(C)CCCc1c[nH]c3ccc(OC)cc13)CO2 (centres unmarked) [Example 7, (7-Methoxy-2,3-dihydro-benzo[1,4]dioxin-2-ylmethyl)-[3-(5-methoxy-1H-indol-3-yl)-propyl]-methyl-amine]",6.74,1230,–
